Data on 105 molecules can be found in PubChem BioAssay AID1552 (Sanford-Burnham Center for Chemical Genomics, 2009).

Activity calls are given as the source filed them. How the calls were made is not given here.

The target of this assay is Ubiquitin-conjugating enzyme E2 N (Homo sapiens) (UniProt P61088). The assay is described as follows: NMR detection of UBE2N ligand binding – biophysical, purified protein (AID 1552). The conditions noted are these: NMR binding to purified UBE2N.
Sequence of Ubiquitin-conjugating enzyme E2 N (Homo sapiens) (P61088 whole entry, looked up): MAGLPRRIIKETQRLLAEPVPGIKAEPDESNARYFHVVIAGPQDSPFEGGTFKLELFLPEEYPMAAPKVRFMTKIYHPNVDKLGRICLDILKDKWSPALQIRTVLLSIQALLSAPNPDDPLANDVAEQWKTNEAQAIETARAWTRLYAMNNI
In the case of `S=C(c1ccc(N2CCOCC2)cc1)N1CCOCC1`, the Kd was > 4 mM (inactive). With `NC(=O)c1ccc(-c2ccccn2)s1` the figure was > 4 mM (inactive); with `CCCSc1nnc2[nH]c(=O)cc(N)n12`, > 4 mM (inactive); with `O=C(O)CCC(=O)Nc1ccccn1`, > 4 mM (inactive). As for `O=P(O)(Cc1ccccc1)c1ccccc1`, the figure is > 4 mM (inactive); as for `COc1cc2c(cc1OC)C1=C(C#N)CCC(=O)N1CC2`, > 4 mM (inactive); as for `CCCc1nc2ccccc2c2nc(N)nn12`, > 4 mM (inactive). Regarding `CCCn1c(S(=O)(=O)O)nc2ccccc21`, the Kd is > 4 mM (inactive). As for `Nn1cnn2c(SCc3ccccc3)nnc12`, the figure is > 4 mM (inactive). As for `c1ccc(-n2nnnc2-n2cnc3ccccc32)cc1`, the figure is > 4 mM (inactive); as for `c1coc(-c2nc(-c3ccncc3)no2)c1`, > 4 mM (inactive). For `O=C1N/C(=N\c2ccccn2)SC1Cc1ccccc1` (stereo not given), the Kd was > 4 mM (inactive).

As to `COc1ccc(/C=C2\NC(=S)N(C)C2=O)cc1O`, the Kd is > 4 mM (inactive).

With `O=C1NC(=O)C(C(C[N+](=O)[O-])c2ccc(O)cc2)C(=O)N1` (stereo not given), the Kd is > 4 mM (inactive). As for `Cc1cc(=O)c2c(O)c(C)c(O)cc2o1`, the figure is > 4 mM (inactive); as for `O=C(C1CCC(C(=O)N2CCCC2)CC1)N1CCCC1` (stereo not given), > 4 mM (inactive). With `CC(=O)Nc1ccn(Cc2c(F)cccc2Cl)n1` the figure was > 4 mM (inactive); with `CCNC(CC(=O)Nc1cccc([N+](=O)[O-])c1)C(=O)O` (stereo not given), > 4 mM (inactive). With `CN1CCN(S(=O)(=O)c2ccc(=O)[nH]c2)CC1` the figure was > 4 mM (inactive).

As for `O=C1CSC(c2ccccc2)N1` (stereo not given), the Kd was > 4 mM (inactive). With `CN=C1SC(CC(=O)Nc2ccc(O)cc2)C(=O)N1C` (stereo not given) the figure was > 4 mM (inactive).

Turning to `CC(C)(C)c1cc(CN)c(C(=O)O)o1`, the Kd was > 4 mM (inactive). As for `O=C(c1ccco1)N1CCn2c1nc1ccccc12`, the figure is > 4 mM (inactive); as for `COc1ccc(-c2coc3cc(OC)cc(OC)c3c2=O)cc1`, > 4 mM (inactive). With `CC(=O)NC1C(=O)Nc2c(C)cc(C)cc21` (stereo not given) the figure was > 4 mM (inactive).

Consider `NC(C(=O)O)C(O)C(=O)O` (stereo not given), for which the Kd is > 4 mM (inactive). As for `COc1ccc(Cl)c(S(=O)(=O)N2CCCC2)c1`, the figure is > 4 mM (inactive).

Turning to `Cn1c2c(c(=O)n(C)c1=O)CN(Cc1ccco1)CN2`, the Kd is > 4 mM (inactive). In the case of `Cc1cc(C)c(C#N)c(N2CCCC2)n1`, the Kd is > 4 mM (inactive).

Consider `Oc1ccc(C(=S)N2CCOCC2)cc1`, for which the Kd is > 4 mM (inactive). With `O=C(O)c1cnc2n(c1=O)CCS2` the figure was > 4 mM (inactive). As for `Cc1[nH]c2ccccc2c1CN(C)C`, the figure is > 4 mM (inactive). As for `Cc1oc(-c2ccccc2)nc1CC(=O)O`, the figure is > 4 mM (inactive); as for `Cc1nc(-c2ccccc2)ncc1C(=O)O`, > 4 mM (inactive); as for `Nc1ncnc2c1ncn2CCN1CCOCC1`, > 4 mM (inactive). On to `Cc1occc1C(=O)Nc1ccc2c(c1)CCC2`, for which the Kd was > 4 mM (inactive). With `CCCCCCCCCCCCCCC(C(=O)O)C(O)(CC(=O)OC)C(=O)O` (stereo not given) the figure was > 4 mM (inactive). As for `CC(=O)Nc1ccc2c(c1)n(C)c(=O)n2C`, the figure is > 4 mM (inactive); as for `CC(C)c1ccc(NC(=O)C(N)=O)cc1`, > 4 mM (inactive); as for `N=c1n(N)c2ccccc2n1CCO`, > 4 mM (inactive). As for `Nc1cc(F)nc(F)n1`, the figure is > 4 mM (inactive); as for `Cc1c(C(=O)Nc2ccncc2)oc2c1C(=O)CC(C)(C)C2`, > 4 mM (inactive); as for `CCOC(=O)c1sc(SC)c2c1CCCC2O` (stereo not given), > 4 mM (inactive).

As for `O=C(O)CC1NCCNC1=O` (stereo not given), the Kd is > 4 mM (inactive). As for `Nc1ccc(N2CCCCC2)cc1`, the figure is > 4 mM (inactive).

For the molecule `Cc1cc(C)n(-c2nc(C)nc(N)n2)n1`, the Kd was > 4 mM (inactive).

On to `CC(=O)NC(=S)Nc1ccc(N(C)C(C)=O)cc1`, for which the Kd is > 4 mM (inactive). With `O=S(=O)(Nc1ccc2c(c1)OCCO2)c1cccs1` the figure was > 4 mM (inactive); with `Nc1ccc(Cl)nn1`, > 4 mM (inactive); with `O=C(CC1Nc2ccccc2NC1=O)Nc1ccc(O)cc1` (stereo not given), > 4 mM (inactive). As for `Cc1cc(C(=O)Nc2cccnc2)cs1`, the figure is > 4 mM (inactive); as for `O=C(/C=C/c1ccccc1)c1ccc(O[C@@H]2O[C@H](CO)[C@@H](O)[C@H](O)[C@H]2O)cc1O`, > 4 mM (inactive). With `Nc1ccccc1C(=O)N1CCNC(=O)C1` the figure was > 4 mM (inactive); with `O=C(NCc1ccccc1Cl)c1cnn2cccnc12`, > 4 mM (inactive); with `OCC1CCCN2CCCCC12` (stereo not given), > 4 mM (inactive).

For `NC(N)=Nc1nc2ccccc2o1`, the Kd is > 4 mM (inactive).

As for `Cc1cc(C)n(S(=O)(=O)c2ccc(C(C)(C)C)cc2)n1`, the Kd was > 4 mM (inactive). As for `OCC1COc2ccccc2O1` (stereo not given), the figure is > 4 mM (inactive); as for `O=S(=O)(N1CCOCC1)n1nnc2ccccc21`, > 4 mM (inactive). With `Nc1cccnc1Oc1ccc(F)cc1F` the figure was > 4 mM (inactive); with `N=C1/C(=C\c2ccccc2)C(=O)N=C2SC=NN12`, > 4 mM (inactive).

Regarding `C[C@@H]1C(=O)O[C@H]2[C@H]1CC[C@@]1(C)C=CC(=O)[C@@]3(C)O[C@@]213`, the Kd is > 4 mM (inactive). As for `O=C(Nc1ccccc1)NC1CCS(=O)(=O)C1` (stereo not given), the figure is > 4 mM (inactive).

For `CSc1nc2nc(C)cc(=O)n2[nH]1`, the Kd is > 4 mM (inactive). As for `c1cc2c(cc1[C@H]1OC[C@H]3[C@@H]1CO[C@H]3c1ccc3c(c1)OCO3)OCO2`, the figure is > 4 mM (inactive); as for `CC(C)C1COc2cc3oc(=O)ccc3cc2O1` (stereo not given), > 4 mM (inactive). In the case of `O=C(NC1=NCCS1)c1cccc(F)c1`, the Kd was > 4 mM (inactive).

In the case of `CC(=O)Nc1cccc(N(C)S(C)(=O)=O)c1`, the Kd was > 4 mM (inactive). As for `CC(C)(C)CC(=O)NNC(=O)c1cnccn1`, the figure is > 4 mM (inactive); as for `O=C1CSC(c2ccc3c(c2)OCO3)N1` (stereo not given), > 4 mM (inactive). As for `COc1cc(C)c2c(c1C=O)Oc1c(c(C)c(O)c3c1C(O)OC3=O)OC2=O` (stereo not given), the figure is > 4 mM (inactive); as for `OCCCc1nc2ccc(C(F)(F)F)cc2[nH]1`, > 4 mM (inactive). In the case of `O=C1CCCCCN1CO`, the Kd was > 4 mM (inactive). Take `CC(=O)Nc1cccc(NC(=O)c2cccnc2)c1`: the Kd was > 4 mM (inactive). Consider `Cc1cc(C)n2c(SCc3c(C)noc3C)nnc2n1`, for which the Kd is > 4 mM (inactive). As for `O=C1CN2C(=N1)N(Cc1ccccc1)c1ccccc12`, the figure is > 4 mM (inactive); as for `CC(=O)O[C@@H]1CC2C(C)(C)CCC(=O)[C@]2(C)C2CC[C@@]3(C)[C@H](c4ccoc4)OC(=O)C4OC43[C@@]21C` (stereo not given in full), > 4 mM (inactive). Consider `O=c1ccc2cc(O[C@@H]3O[C@H](CO)[C@@H](O)[C@H](O)[C@H]3O)c(O)cc2o1`, for which the Kd is > 4 mM (inactive). As for `O=C(O[C@@H]1Cc2c(O)cc(O)cc2O[C@@H]1c1ccc(O)c(O)c1)c1cc(O)c(O)c(O)c1`, the figure is > 4 mM (inactive).

With `Cc1nc(-c2ccccc2)ncc1CO`, the Kd is > 4 mM (inactive). With `COc1cc(C)c(S(=O)(=O)N2CCN(C)CC2)cc1C` the figure was > 4 mM (inactive); with `Cc1nc2ccccc2c(=O)n1CCCO`, > 4 mM (inactive).

Take `CC(=O)Nc1ccncc1NC(C)=O`: the Kd is > 4 mM (inactive). With `Cc1nn2c(=O)nc3sc4c(c3c2[nH]c1=O)CCCC4` the figure was > 4 mM (inactive).

On to `CC(=O)Nc1ccc(Oc2nc(C)cc(C)n2)cc1`, for which the Kd is > 4 mM (inactive).

For `CCc1cc2c(SCC(=O)O)ncnc2s1`, the Kd is > 4 mM (inactive). As for `NS(=O)(=O)c1ccc2c(c1)OCCO2`, the figure is > 4 mM (inactive); as for `CCCn1cnc2sc(C(N)=O)c(C)c2c1=O`, > 4 mM (inactive); as for `O=c1[nH]nnc2sc3c(c12)CCCC3`, > 4 mM (inactive).

For `NC(=O)Cc1nc(-c2ccc(F)cc2)cs1`, the Kd is > 4 mM (inactive). As for `O=C(NCc1cccnc1)c1ccccn1`, the figure is > 4 mM (inactive); as for `CC(C)(C)c1ccc(SCC(N)=O)cc1`, > 4 mM (inactive). For `O=C1NCC(=O)N2CCc3ccccc3C12` (stereo not given), the Kd is > 4 mM (inactive). With `COCCOc1nc2ccccc2nc1C` the figure was > 4 mM (inactive). With `NN1C(=O)/C(=C/c2ccc(O)c(O)c2)SC1=S` the figure was > 4 mM (inactive); with `O=C(/C=C/c1ccccc1)NC1CCS(=O)(=O)C1` (stereo not given), > 4 mM (inactive); with `S=c1[nH]nc(-c2cccnc2)n1Cc1ccccc1`, > 4 mM (inactive). Consider `NC(=O)c1ccccc1N1CCCCC1`, for which the Kd was > 4 mM (inactive).

Take `CC(=O)Nc1ccn(-c2ccccc2)n1`: the Kd was > 4 mM (inactive).

In the case of `O=C1c2ccccc2C(=O)N1/N=C/c1ccc[nH]1`, the Kd was > 4 mM (inactive). For the molecule `OC1CCNC2CCCCC12` (stereo not given), the Kd was > 4 mM (inactive).

Consider `Cc1ccc(C(=O)N2CCC(C(N)=O)CC2)c(Cl)c1`, for which the Kd is > 4 mM (inactive). As for `Cc1ccc2cc(CO)ccc2n1`, the figure is > 4 mM (inactive); as for `CC(C)=CCC[C@](C)(O)C1CC=C(C)CC1` (stereo not given in full), > 4 mM (inactive). As for `O=C1NC(=S)N/C1=C/c1ccsc1`, the figure is > 4 mM (inactive).

A word on the Kd: it is the concentration at which binding is half-saturated.
